Data from paper PMC4552634, “A New Set of Chemical Starting Points with Plasmodium falciparum Transmission-Blocking Potential for Antimalarial Drug Discovery” (PLoS ONE, 2015).
Read-outs that look alike come from different tables or passages of the source.

Tested on: P. falciparum stage V gametocytes
Assay: microbe, parasite or virus in culture
Set-up: BacTiter-Glo ATP luminescence viability of purified stage V gametocytes in 384-well plates, per cent inhibition versus DMSO
[1] = Plasmodium falciparum, 48 h, read-out: % Inhibition
[2] = Plasmodium falciparum, 48 h; read-out: % Inhibition

Row | Compound | inhibition at 5 µM [1] [%] | inhibition at 5 µM [2] [%]
1 | CCN(CC)CCCC(C)Nc1c(-c2ccc(C)cc2)cnc2ccccc12 (centres unmarked) [TCMDC-142264] | 25.6 | –
2 | COc1ccc2c(NN=Cc3ccccc3Cl)ccnc2c1 [TCMDC-142127] | -22.2 | –
3 | COc1ccc2nccc(NN=Cc3ccc(N(C)C)cc3)c2c1 [TCMDC-142145] | -119 | –
4 | COc1ccc2c(NN=Cc3ccc(N(C)C)cc3)ccnc2c1 [TCMDC-142146] | 97.5 | –
5 | Oc1ccc(CCCc2cc(Oc3c(I)cc(CCc4ncc[nH]4)cc3I)ccc2O)cc1 [TCMDC-142308] | -67 | –
6 | Cc1ccc(Cc2cnc(NCCSCc3ccc(CN4CCOCC4)o3)[nH]c2=O)cn1 [TCMDC-142303] | -5.99 | –
7 | c1ccc2c3c(ccc2c1)Sc1c(ccc2ccccc12)N3 [TCMDC-142267] | -92.1 | –
8 | COc1ccc2c(NN=Cc3cccc(C)n3)cc(-c3ccccc3)nc2c1 [TCMDC-142120] | -50.4 | –
9 | CN(C(=O)c1ccc(Br)cc1)c1ccccc1[N+](=O)[O-] [TCMDC-142245] | -8 | –
10 | CNCCc1c(O)ccc2ccccc12 [TCMDC-142244] | – | -11.4
11 | CCCCCCCCNCC(O)c1cc(-c2ccc(Cl)cc2)nc2cc(C)ccc12 (centres unmarked) [TCMDC-142223] | -7.88 | –
12 | Cc1cc(NN=Cc2ccccc2Cl)c2cc(C(F)(F)F)ccc2n1 [TCMDC-142154] | -77.2 | –
13 | CCCCCCCCNc1c2ccc(Cl)cc2nc2ccc(OC)cc12 [TCMDC-142191] | 0.773 | –
14 | CCCCCC(C)C(C)c1cc(O)c2c(c1)OC1(C(C)C)CC(O)C(C)C2C1 (centres unmarked) [TCMDC-142232] | – | 44.6
15 | CCCCCNc1nc(Nc2ccccc2C)nc2ccccc12 [TCMDC-142328] | 26.7 | –
16 | CCOC(=O)c1cnc2c(OC)cc(OC)c(Cl)c2c1Nc1cccc(C)c1 [TCMDC-142241] | -99.9 | –
17 | Cc1ccccc1Nc1cc(Nc2ccccc2C)c2ccccc2n1 [TCMDC-142337] | 98.8 | –
18 | Fc1cccc(C=NNc2ccnc3ccc(C(F)(F)F)cc23)c1 [TCMDC-142151] | -62.1 | –
19 | CCOc1ccc2c(NN=Cc3cc(OC)c(OC)c(OC)c3)cc(C)nc2c1 [TCMDC-142208] | 101 | –
20 | CCCCNC(c1ccc(Cl)cc1)C(O)c1ccc(Cl)cc1 (centres unmarked) [TCMDC-142227] | -29.7 | –
21 | COc1cccc2c(Oc3ccccc3C)ccnc12 [TCMDC-142320] | -32.5 | –
22 | COc1ccc2nc3cc(Cl)ccc3c(Nc3ccc(O)c(CNC(C)C)c3)c2c1 [TCMDC-142278] | 57.9 | –

Row | Compound | inhibition at 5 µM [1] [%] | inhibition at 5 µM [2] [%]
23 | Fc1ccc2nccc(NN=CC=Cc3ccccc3)c2c1 [TCMDC-142123] | -73.4 | –
24 | NC(=NCc1ccccc1)Nc1nc(-c2ccc(OCCCn3ccnc3)cc2)cs1 [TCMDC-142335] | 8.33 | –
25 | Cc1ccc(O)cc1C[C@@H]1C(=O)CC[C@@]2(C)[C@H]1CC[C@]2(C)O [TCMDC-142266] | -40.3 | –
26 | Oc1ccc(Br)cc1-c1nc2ccc(Cl)cc2nc1-c1cc(Br)ccc1O [TCMDC-142219] | 82.4 | –
27 | CCOc1ccc2c(NN=Cc3c4ccccc4cc4ccccc34)cc(C)nc2c1 [TCMDC-142209] | 106 | –
28 | CCOc1ccc2c(NN=Cc3ccccn3)cc(C)nc2c1 [TCMDC-142187] | 20.9 | –
29 | Cc1cc(F)ccc1Nc1nc(N(C)c2ccccc2)c2cccc(OCCO)c2n1 [TCMDC-142334] | 32.7 | –
30 | CON(CCCN(C)C)C(=N)N [TCMDC-142297] | 12.5 | –
31 | Cc1[nH]cnc1CSCCN/C(=N\C#N)NCCCCCCCCN/C(=N/C#N)NCCSCc1nc[nH]c1C [TCMDC-142302] | 48.1 | –
32 | COc1ccc2nccc(NN=Cc3ccc([N+](=O)[O-])cc3)c2c1 [TCMDC-142139] | -3.02 | –
33 | FC(F)(F)c1ccc2c(NN=Cc3cccc(Cl)c3)ccnc2c1 [TCMDC-142149] | -44.9 | –
34 | COc1ccc2c(NN=Cc3ccccc3)cc(C)nc2c1 [TCMDC-142119] | 7.88 | –
35 | FC(F)(F)c1ccc2nccc(NN=Cc3cccc(Cl)c3)c2c1 [TCMDC-142148] | 56 | –
36 | CCN(Cc1ccccc1)CC(O)c1ccc(Cl)c(Cl)c1 (centres unmarked) [TCMDC-142226] | 14.8 | –
37 | COc1cccc(C=NNc2cc(C)nc3ccccc23)c1 [TCMDC-142183] | -15.9 | –
38 | COc1ccc2c(N/N=C/c3ccc([N+](=O)[O-])cc3)ccnc2c1 [TCMDC-142108] | 91.3 | –
39 | COc1ccc(C=NNc2c3ccccc3nc3ccccc23)c2ccccc12 [TCMDC-142231] | -139 | –
40 | N=C(N)c1cccc(OCCCOc2cccc(NC(=O)Nc3ccc([N+](=O)[O-])cc3)c2)c1 [TCMDC-142189] | 24.9 | –
41 | CCCC(=O)c1cnc2c(OCCCc3c[nH]cn3)cccc2c1Nc1c(C)cccc1C [TCMDC-142338] | 28.2 | –
42 | CCN(CC)CC(O)c1cc(-c2ccc(C)cc2)nc2c(C)cc(C)cc12 (centres unmarked) [TCMDC-142229] | -117 | –
43 | COc1ccc2c(NN=C(C)c3ccccn3)cc(C)nc2c1 [TCMDC-142239] | 103 | –
44 | Nc1c2c(nc3ccc(C(=O)Nc4ccc(Br)cc4)cc13)CCCC2 [TCMDC-142287] | 62.2 | –

Row | Compound | inhibition at 5 µM [1] [%] | inhibition at 5 µM [2] [%]
45 | O=C(OCc1ccccn1)c1nc2ccccc2[nH]1 [TCMDC-142313] | 43.6 | –
46 | Cc1cc(NN=Cc2ccccc2F)c2cc(F)ccc2n1 [TCMDC-142171] | -53.4 | –
47 | Cc1cc(NN=Cc2cccc(Cl)c2)c2cc(F)ccc2n1 [TCMDC-142164] | -59.6 | –
48 | CCCCCCC(C)c1cc(O)c2c(c1)OC(C)(C)c1ccncc1-2 (centres unmarked) [TCMDC-142254] | – | 56.1
49 | CCOc1ccc2c(NN=Cc3ccc(F)cc3)cc(C)nc2c1 [TCMDC-142201] | 105 | –
50 | O=c1c(NCCCN(Cc2ccc(F)cc2)c2ccccn2)c(NCc2cccnc2)c1=O [TCMDC-142311] | 48 | –
51 | N#Cc1ccc(S(=O)(=O)N2C(c3cccc([N+](=O)[O-])c3)C(C(=O)c3ccccc3)N(C3CCCCC3)C2c2cccc([N+](=O)[O-])c2)cc1 (centres unmarked) [TCMDC-142230] | 43.9 | –
52 | COc1ccc2nccc(NN=Cc3ccc(F)cc3)c2c1 [TCMDC-142132] | 32.1 | –
53 | CCCCN(CCCC)CCC(O)C(=Cc1ccc(Cl)cc1Cl)c1ccc(C(F)(F)F)cc1N (centres unmarked) [TCMDC-142318] | -17.1 | –
54 | COc1ccc2ccccc2c1C=NNc1cc(C)nc2cc(C(F)(F)F)ccc12 [TCMDC-142238] | -35 | –
55 | CCCCCC(C)C(C)c1cc(O)c2c3c(c(=O)oc2c1)CN(Cc1ccccc1)CC3 (centres unmarked) [TCMDC-142182] | 75.7 | –
56 | Cc1cc(N/N=C/c2cccc([N+](=O)[O-])c2)c2ccc(F)cc2n1 [TCMDC-142169] | 109 | –
57 | COc1cccc(C=NNc2cc(C)nc3c(OC)cccc23)c1 [TCMDC-142197] | 92.7 | –
58 | COc1ccc(C2CNCc3c2cc(OC)c(OC)c3Cl)cc1 (centres unmarked) [TCMDC-142271] | 22.9 | –
59 | COc1ccc(C=NNc2cc(C)nc3c(C)cccc23)c2ccccc12 [TCMDC-142216] | -26.1 | –
60 | Fc1ccc(C2N=C(SCCSC3=NC(c4ccc(F)cc4)C(c4ccc(F)cc4)N3)NC2c2ccc(F)cc2)cc1 (centres unmarked) [TCMDC-142269] | -7.65 | –
61 | Cc1cc(F)ccc1Nc1nc(N(C)c2ccccc2)c2cc(OCCN(C)C)ccc2n1 [TCMDC-142333] | 31.3 | –
62 | Cc1cc(NN=Cc2ccc(Cl)cc2)c2cccc(C)c2n1 [TCMDC-142115] | -40.8 | –
63 | CCCNc1nc(Nc2ccccc2C)nc2ccccc12 [TCMDC-142326] | 78.9 | –
64 | COc1cc(OC)c(OC)cc1C=NNc1cc(C)nc2ccccc12 [TCMDC-142198] | 100 | –
65 | CCOc1ccc2c(NN=Cc3cccc(OC)c3)cc(C)nc2c1 [TCMDC-142204] | 80.8 | –
66 | CCN(CC)CCCC(C)Nc1c(-c2ccc(Br)cc2)cnc2ccccc12 (centres unmarked) [TCMDC-142263] | 26 | –

Row | Compound | inhibition at 5 µM [1] [%] | inhibition at 5 µM [2] [%]
67 | CCN(CC)CCCC(C)Nc1c(-c2ccc(OC)cc2)cnc2ccccc12 (centres unmarked) [TCMDC-142265] | 36.6 | –
68 | COc1ccc(C=Cc2cc(N)c3ccccc3n2)cc1Br [TCMDC-142285] | 39.4 | –
69 | CCCN(CCC)CCCOc1ccc(C(=O)c2c(-c3ccc(OCCCN(CCC)CCC)cc3)oc3ccc(Cl)cc23)cc1 [TCMDC-142256] | 105 | –
70 | CCCCCCC(C)(C)c1cc(O)c2c3c(c(=O)oc2c1)CCN(Cc1ccccc1)C3 [TCMDC-142252] | – | -7.75
71 | CCOc1ccc2c(NN=Cc3ccccc3F)cc(C)nc2c1 [TCMDC-142193] | 98.2 | –
72 | COc1cccc2c(NN=Cc3cccc(Cl)c3)ccnc12 [TCMDC-142129] | 91.8 | –
73 | Cc1cc(NN=Cc2cccc(F)c2)c2cc(F)ccc2n1 [TCMDC-142173] | -60.6 | –
74 | Cc1cc(NN=Cc2ccc(F)cc2)c2cc(F)ccc2n1 [TCMDC-142172] | -47.2 | –
75 | Fc1ccc2c(NN=CC=Cc3ccccc3)ccnc2c1 [TCMDC-142112] | 93.5 | –
76 | COc1cccc2c(N/N=C/c3ccc([N+](=O)[O-])cc3)ccnc12 [TCMDC-142109] | 64 | –
77 | COc1ccc2c(NN=Cc3ccccc3F)cc(C)nc2c1 [TCMDC-142118] | -19.6 | –
78 | CNc1nc(Nc2ccccc2C)nc2ccccc12 [TCMDC-142325] | 50.8 | –
79 | CC1=CC(=O)[C@@H](O)[C@]2(C)[C@H]3[C@@]4(O)OC[C@@]35[C@@H](C[C@@H]12)OC(=O)C[C@H]5[C@@H](C)[C@H]4O [TCMDC-142261] | – | 50.1
80 | CC(C)NCc1cc(Nc2ccnc3cc(Cl)ccc23)ccc1O [TCMDC-142277] | -61.6 | –
81 | CCCC(=O)c1cnc2c(Oc3cc(Cl)ncn3)cccc2c1Nc1ccccc1C [TCMDC-142329] | -26 | –
82 | CCOC(=O)c1cnc2c(OC)cc(OC)c(Cl)c2c1Nc1cccc(C)c1C [TCMDC-142242] | 64.1 | –
83 | Cc1cc(NN=Cc2ccc(Cl)cc2)c2ccc(F)cc2n1 [TCMDC-142160] | -41.4 | –
84 | COc1ccc2c(NN=Cc3ccccc3F)ccnc2c1 [TCMDC-142133] | 84.6 | –
85 | Cc1cc(F)ccc1Nc1nc(N(C)c2ccccc2)c2cccc(O)c2n1 [TCMDC-142331] | -52.7 | –
86 | CN(C)CCCOc1ccc(-c2csc(NC(N)=NCc3ccccc3)n2)cc1 [TCMDC-142339] | 35.3 | –
